Measured values reported in ChEMBL document CHEMBL1145540, “Zidovudine inhibits thymidine phosphorylation in the isolated perfused rat heart” (Antimicrob Agents Chemother, 2007).

System: Heart
Assay: Inhibition of [3H]thymidine phosphorylation in isolated perfused Sprague-Dawley rat heart after 30 mins
Format: functional, tissue-based

IC50: 24.4 µM
SMILES: Cc1cn([C@H]2C[C@H](N=[N+]=[N-])[C@@H](CO)O2)c(=O)[nH]c1=O [ZIDOVUDINE]
